{"source": "patent US20230168203A9", "about": "“Pyrogallarene Chelating and Sequestering Agents” (Kinsey Spiel, priority 2018, published 2023)", "key": {"[1]": {"assay": "Resilience of chelated precipitate at high temperature", "format": "physicochemical", "description": "Unlike some solids where solubility increases rapidly with increasing temperature the pyrogallarene chelated precipitate is resilient at high temperature. […] A chelate made from C-propyl pyrogallol[4]arene and a variety of metals is also undissolved at 80° C. […] However, heterogeneous pyrogallol[4]arene chelation complexes appear to dissolve minimally into aqueous solutions, limited by a low Ksp as discussed above."}, "[2]": {"assay": "Example A: colour of C-propyl pyrogallol[4]arene colloid in deionized water after adding metal chloride salts (chelation indicator)", "description": "A stock solution of was made of 400 mg of purified C-propyl pyrogallol[4]arene dissolved in 20 mL of acetone. […] Upon dispensing this aliquot the aqueous solutions were a colorless white colloid. The colloid appeared to be somewhat translucent. Upon dispensing NaCl into one colorless colloid the color was unchanged. Then various chloride salts of metals were added to colorless C-propyl pyrogallol[4]arene colloids. Upon adding ZnCl2 the colloid turned light brown. Upon adding MgCl2 the colloid turned pink. Upon adding Fe(III)Cl3 the colloid turned grey. Upon adding Cu(I)Cl the colloid turned brown. Upon adding CaCl2 the colloid turned pink. Upon adding Cr(III)Cl3 the colloid turned green. Upon adding BaCl2.2H2O the colloid turned pink. Upon adding MnCl2 the colloid turned salmon. Upon adding NiCl2 the colloid turned salmon.\nIn Example A, half of the metal salts, ZnCl2, MgCl2, CaCl2, and BaClz.2H2O, were colorless in their solid form, before adding them to the colloid. Pyrogallarene chelation is evident as a colorless salts are added to a colorless colloid and varying colors result. Five of the salts were colored in their solid form. […] Although Fe(III)Cl3 was brownish red in its solid form the resulting colloid solution was grey. Cu(I)Cl was green in its solid form but the resulting colloid solution was brown. NiCl2 was green in its solid form but the resulting colloid solution was pink."}, "[3]": {"assay": "Solid state contact of nearly dry pyrogallarenes with stainless steel spatula", "conditions": "freshly-synthesized", "source_text": "Pyrogallarenes, including C-methyl Pyrogallol[4]arene, C-ethyl Pyrogallol[4]arene, and C-propyl pyrogallol[4]arene, have a high affinity for metals, even in a homogeneous solid state reaction. For example, a stainless steel spatula in contact with these freshly-synthesized and not completely dry (nearly dry) pyrogallarenes results in a color shift from white to blue where the spatula came in contact with the pyrogallol[4]arene. This example may illustrate, as in previous examples, that a chelation reaction has occurred."}, "[4]": {"assay": "Example B: precipitate formation of C-ethyl pyrogallarene colloid (from saturated methanol) after adding metal chlorides", "source_text": "Some metals required more time for a precipitate to form."}, "[5]": {"assay": "Example C: C-ethyl pyrogallol[4]arene colloid (from acetone stock) after adding chloride salts", "description": "Upon dispensing this aliquot the aqueous solutions were colorless white colloids. Various chloride salts were added to the solution including […], Tungsten(IV) chloride, Strontium chloride, Titanium chloride, Zirconyl (IV) chloride octahydrate, Aluminum chloride, and Hafnium chloride. All metal salts were colorless except Tungsten(IV) chloride, which was light green, and Titanium chloride, which was a yellow solution. […] All other colloids appeared unchanged immediately after the addition of the metal. This may be a result of no chelation or slow reaction kinetics for the chelated complex. Finally, one additional salt, colorless Gadolinium Chloride, was tested. […] As stated previously, various examples may indicate chelation and sequestration by pyrogallarenes on a PPM level, owing to the solubility of various chloride salts. For example, PbCl2 is very poorly soluble in water."}, "[6]": {"assay": "Heterogeneous chelation: solid pyrogallol[4]arene dispensed into unpurified aqueous solution"}, "[7]": {"description": "A stock solution of was made of 100 mg of purified C-ethyl pyrogallol[4]arene dissolved in 20 mL of acetone. 1 mL aliquots of this stock solution were dispensed into vials containing 20 mL of water. Sample one contained TDS of 330, Ca of 30 ppm, Mg of 26 ppm, K of 1 ppm, Si of 15 ppm, bicarbonate of 360 ppm, Pb of <0.001, and a pH of 7.2. Sample two contained TDS of 222, Ca of 18 ppm, Mg of 15 ppm, K of 5.3 ppm, Si of 93 ppm, bicarbonate of 152 ppm, and a pH of 7.7. Sample three contained TDS of 44, Ca of 5 ppm, Mg of 1 ppm, K of 0 ppm, bicarbonate of 20 ppm, and a pH of 7.8.", "remark": "listed apart in the source"}}, "note": "Where two headings read alike, the source gives them in different places.", "data": [{"smiles": "CCCC1c2cc(c(O)c(O)c2O)C(CCC)c2cc(c(O)c(O)c2O)C(CCC)c2cc(c(O)c(O)c2O)C(CCC)c2cc1c(O)c(O)c2O", "note": "(centres unmarked) [C-propyl pyrogallol[4]arene]", "values": [{"measurement": "solubility in water", "value": "only slightly soluble"}, {"measurement": "stability of chelate", "setting": "[1]; chelate with PbCl2, 80° C", "value": "stable and undissolved"}, {"measurement": "stability of chelate", "setting": "[1]; chelate with a variety of metals, 80° C", "value": "undissolved"}, {"measurement": "colour of colloid", "setting": "[2]; BaCl2.2H2O added", "value": "pink"}, {"measurement": "colour of colloid", "setting": "[2]; CaCl2 added", "value": "pink"}, {"measurement": "colour of colloid", "setting": "[2]; Cr(III)Cl3 added", "value": "green"}, {"measurement": "colour of colloid", "setting": "[2]; Cu(I)Cl added", "value": "brown"}, {"measurement": "colour of colloid", "setting": "[2]; Fe(III)Cl3 added", "value": "grey"}, {"measurement": "colour of colloid", "setting": "[2]; MgCl2 added", "value": "pink"}, {"measurement": "colour of colloid", "setting": "[2]; MnCl2 added", "value": "salmon"}, {"measurement": "colour of colloid", "setting": "[2]; NaCl added", "value": "unchanged"}, {"measurement": "colour of colloid", "setting": "[2]; NiCl2 added", "value": "salmon"}, {"measurement": "colour of colloid", "setting": "[2]; ZnCl2 added", "value": "light brown"}, {"measurement": "color shift where spatula came in contact", "setting": "[3]", "value": "white to blue"}]}, {"smiles": "CC1c2cc(c(O)c(O)c2O)C(C)c2cc(c(O)c(O)c2O)C(C)c2cc(c(O)c(O)c2O)C(C)c2cc1c(O)c(O)c2O", "note": "(centres unmarked) [C-methyl Pyrogallol[4]arene]", "values": [{"measurement": "color shift where spatula came in contact", "setting": "[3]", "value": "white to blue"}]}, {"smiles": "CCC1c2cc(c(O)c(O)c2O)C(CC)c2cc(c(O)c(O)c2O)C(CC)c2cc(c(O)c(O)c2O)C(CC)c2cc1c(O)c(O)c2O", "note": "(centres unmarked) [C-ethyl pyrogallol[4]arene]", "values": [{"measurement": "precipitate formed", "setting": "[4]; BaClz.2H2O, 24 hours later", "value": "white precipitate"}, {"measurement": "precipitate formed", "setting": "[4]; CaCl2 added, immediately", "value": "blue precipitate"}, {"measurement": "precipitate formed", "setting": "[4]; Cr(III)Cl3, 24 hours later", "value": "white precipitate"}, {"measurement": "precipitate formed", "setting": "[4]; Cu(I)Cl, 24 hours later", "value": "grey precipitate"}, {"measurement": "precipitate formed", "setting": "[4]; NiClz, 24 hours later", "value": "white precipitate"}, {"measurement": "precipitate formed", "setting": "[4]; PbCl2 added, immediately", "value": "blue precipitate"}, {"measurement": "precipitate formed", "setting": "[4]; ZnCl2 added, immediately", "value": "blue precipitate"}, {"measurement": "solubility in water", "value": "mostly insoluble"}, {"measurement": "observation on colloid", "setting": "[5]; Aluminum chloride added, immediately after addition", "value": "unchanged"}, {"measurement": "observation on colloid", "setting": "[5]; Gadolinium Chloride added", "value": "purple precipitate"}, {"measurement": "observation on colloid", "setting": "[5]; Hafnium chloride added", "value": "grey precipitate"}, {"measurement": "observation on colloid", "setting": "[5]; Strontium chloride added", "value": "white precipitate"}, {"measurement": "observation on colloid", "setting": "[5]; Titanium chloride added, immediately after addition", "value": "unchanged"}, {"measurement": "observation on colloid", "setting": "[5]; Tungsten(IV) chloride added, immediately after addition", "value": "unchanged"}, {"measurement": "observation on colloid", "setting": "[5]; Yttrium(II) chloride hydrate added", "value": "purple precipitate"}, {"measurement": "observation on colloid", "setting": "[5]; Zirconyl (IV) chloride octahydrate added", "value": "clear grey solution"}, {"measurement": "dissolution of solid", "setting": "[6]; solid in unpurified aqueous solution", "value": "almost completely undissolved"}, {"measurement": "shift of absorbance colour of solid", "setting": "[6]; solid, colorless compound in unpurified aqueous solution", "value": "blue"}, {"measurement": "observation on water sample", "setting": "[7]; Sample four: pH 9.4", "value": "pink colored solution"}, {"measurement": "observation on water sample", "setting": "[7]; Sample one: TDS 330, Ca 30 ppm, Mg 26 ppm, pH 7.2", "value": "dense blue precipitate"}, {"measurement": "observation on water sample", "setting": "[7]; Sample three: TDS 44, Ca 5 ppm, Mg 1 ppm, pH 7.8, several days", "value": "did not produce a precipitate"}, {"measurement": "observation on water sample", "setting": "[7]; Sample two: TDS 222, Ca 18 ppm, Mg 15 ppm, pH 7.7, over a few minutes", "value": "diffuse blue precipitate"}, {"measurement": "color shift where spatula came in contact", "setting": "[3]", "value": "white to blue"}]}]}
